Experimental data from US10577363B2, “Substituted piperidine compounds” (EPIZYME, INC., priority 2014, dated 2020).
Each block holds one compound with its values, some of them ahead of it.

Assays:
SMYD3 [1] = target: T1, SMYD3 (Homo sapiens (Human), UniProt Q9H7B4); assay: SMYD3 biochemical assay (SPA, 3H-SAM methylation of MEKK2 protein substrate)
Method in brief: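 Methylation of N-terminally GST-tagged MEKK2 by untagged full-length human SMYD3, using 3H-SAM, in pH 8.0 Tris buffer with TCEP, BSG and Tween 20; enzyme and compound sat 30 min at room temperature before substrate addition. Stopped with 100 uM (final) cold SAM; incorporation read by scintillation proximity as dpm/cpm.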

SMYD3 [2] = target: T1, SMYD3; assay: SMYD3 cell assay (Trimethyl-MEKK2 In-Cell Western in 293T/17 cells); format: cell-based
Method in brief: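 In-Cell Western readout: methanol-fixed cells stained for trimethyl-MEKK2 and flag tag, ratio per well normalized to DMSO and background controls.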

[3] = average of n = 1 to n = 50, read-out: SMYD3 Biochem IC50
[4] = average of n = 1 to n = 50, read-out: SMYD3 Cell IC50
[5] = Table 2A, read-out: SMYD3 Biochem IC50
[6] = Table 2A, read-out: SMYD3 Cell IC50
[7] = IC50 values are an average of n = 1 to n = 50, read-out: SMYD3 Biochem IC50*
[8] = IC50 values are an average of n = 1 to n = 50, read-out: SMYD3 Cell IC50*
[9] = read-out: SMYD3 Biochem IC50 (μM)*
[10] = 293T/17 cells, read-out: SMYD3 Cell IC50 (μM)*
[11] = read-out: SMYD3 Cell IC50 (μM)*

T1 sequence (Q9H7B4 whole entry): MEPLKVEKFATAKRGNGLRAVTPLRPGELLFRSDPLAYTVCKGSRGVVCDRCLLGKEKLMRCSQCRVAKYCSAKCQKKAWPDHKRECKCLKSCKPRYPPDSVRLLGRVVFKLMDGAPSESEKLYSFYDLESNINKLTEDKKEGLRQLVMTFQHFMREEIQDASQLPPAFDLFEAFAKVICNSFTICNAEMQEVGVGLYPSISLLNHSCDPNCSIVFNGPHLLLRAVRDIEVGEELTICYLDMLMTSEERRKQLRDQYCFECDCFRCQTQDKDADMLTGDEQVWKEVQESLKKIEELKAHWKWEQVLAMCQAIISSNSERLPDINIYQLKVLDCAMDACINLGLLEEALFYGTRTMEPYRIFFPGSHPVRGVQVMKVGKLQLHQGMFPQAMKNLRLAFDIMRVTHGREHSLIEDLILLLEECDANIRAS

Structure (SMILES): NCC1CCN(S(=O)(=O)N2[C@@H]3CC[C@H]2C[C@@H](NC(=O)c2cc(C4CC4)on2)C3)CC1 [compound 830, N-((1R,3r,5S)-8-((4-(aminomethyl)piperidin-1-yl)sulfonyl)-8-azabicyclo[3.2.1]octan-3-yl)-5-cyclopropylisoxazole-3-carboxamide]
IC50 (SMYD3 [1]; read-out: SMYD3 Biochem IC50*): 0.00434 µM
IC50 (SMYD3 [2]; read-out: SMYD3 Cell IC50*): 1.55 µM

Structure (SMILES): O=C(N[C@H]1C[C@H]2CC[C@@H](C1)N2S(=O)(=O)CCN1CCC(N2CCCCC2)C1)c1cc(C2CC2)on1 (stereo partly drawn) [compound 663, 5-cyclopropyl-N-((1R,3r,5S)-8-((2-(3-(piperidin-1-yl)pyrrolidin-1-yl)ethyl)sulfonyl)-8-azabicyclo[3.2.1]octan-3-yl)isoxazole-3-carboxamide]
IC50 (SMYD3 [1]; [3]): 0.0851 µM
IC50 (SMYD3 [2]; [4]): 0.67 µM

Structure (SMILES): O=C(N[C@H]1C[C@H]2CC[C@@H](C1)N2S(=O)(=O)N1CCNCC1)c1cc(C2CC2)on1 [compound 856, 5-cyclopropyl-N-((1R,3r,5S)-8-(piperazin-1-ylsulfonyl)-8-azabicyclo[3.2.1]octan-3-yl)isoxazole-3-carboxamide]
IC50 (SMYD3 [1]; read-out: SMYD3 Biochem IC50*): 0.00709 µM
IC50 (SMYD3 [2]; read-out: SMYD3 Cell IC50*): 0.0467 µM

Structure (SMILES): O=C(N[C@H]1C[C@H]2CC[C@@H](C1)N2S(=O)(=O)N1CCC(NCCCN2CCOCC2)CC1)c1cc(C2CC2)on1 [compound 912, 5-cyclopropyl-N-((1R,3r,5S)-8-((4-((3-morpholinopropyl)amino)piperidin-1-yl)sulfonyl)-8-azabicyclo[3.2.1]octan-3-yl)isoxazole-3-carboxamide]
IC50 (SMYD3 [1]; read-out: SMYD3 Biochem IC50*): 0.0209 µM
IC50 (SMYD3 [2]; read-out: SMYD3 Cell IC50*): 0.316 µM

Structure (SMILES): CN1CCCC1CS(=O)(=O)N1[C@@H]2CC[C@H]1C[C@@H](NC(=O)c1cc(C3CC3)on1)C2 (stereo partly drawn) [compound 982, 5-cyclopropyl-N-((1R,3r,5S)-8-(((1-methylpyrrolidin-2-yl)methyl)sulfonyl)-8-azabicyclo[3.2.1]octan-3-yl)isoxazole-3-carboxamide]
IC50 (SMYD3 [1]; [7]): 0.134 µM
IC50 (SMYD3 [2]; [8]): 0.819 µM

Structure (SMILES): O=C(NC1CC2CCCC(C1)N2S(=O)(=O)c1ccccc1)c1cc(C2CC2)on1 (stereo not shown) [compound 401, 5-cyclopropyl-N-(9-(phenylsulfonyl)-9-azabicyclo[3.3.1]nonan-3-yl)isoxazole-3-carboxamide]
IC50 (SMYD3 [1]; [9]): 0.793 µM
IC50 (SMYD3 [2]; [10]): 2.95 µM

Structure (SMILES): CN1CCCC[C@H]1CS(=O)(=O)N1[C@@H]2CC[C@H]1C[C@@H](NC(=O)c1cc(C3CC3)on1)C2 [compound 976, 5-cyclopropyl-N-((1R,3S,5S)-8-((((S)-1-methylpiperidin-2-yl)methyl)sulfonyl)-8-azabicyclo[3.2.1]octan-3-yl)isoxazole-3-carboxamide]
IC50 (SMYD3 [1]; [7]): 0.105 µM
IC50 (SMYD3 [2]; [8]): 0.555 µM

Structure (SMILES): O=C(N[C@H]1C[C@H]2CC[C@@H](C1)N2S(=O)(=O)N1CCC(NCc2ccccc2)CC1)c1cc(C2CC2)on1 [compound 810, N-((1R,3r,5S)-8-((4-(benzylamino)piperidin-1-yl)sulfonyl)-8-azabicyclo[3.2.1]octan-3-yl)-5-cyclopropylisoxazole-3-carboxamide]
IC50 (SMYD3 [1]; read-out: SMYD3 Biochem IC50*): 0.00253 µM
IC50 (SMYD3 [2]; read-out: SMYD3 Cell IC50*): 0.0722 µM

Structure (SMILES): O=C(N[C@H]1C[C@H]2CC[C@@H](C1)N2S(=O)(=O)N1CCNC(c2ccccc2)C1)c1cc(C2CC2)on1 (stereo partly drawn) [compound 722, 5-cyclopropyl-N-((1R,3r,5S)-8-((3-phenylpiperazin-1-yl)sulfonyl)-8-azabicyclo[3.2.1]octan-3-yl)isoxazole-3-carboxamide]
IC50 (SMYD3 [1]; [3]): 0.326 µM
IC50 (SMYD3 [2]; [4]): 1.52 µM

Structure (SMILES): CCN1C2CCC1CN(S(=O)(=O)N1[C@@H]3CC[C@H]1C[C@@H](NC(=O)c1cc(C4CC4)on1)C3)C2 [compound 822, 5-cyclopropyl-N-((1R,3r,5S)-8-((8-ethyl-3,8-diazabicyclo[3.2.1]octan-3-yl)sulfonyl)-8-azabicyclo[3.2.1]octan-3-yl)isoxazole-3-carboxamide]
IC50 (SMYD3 [1]; read-out: SMYD3 Biochem IC50*): 0.00344 µM
IC50 (SMYD3 [2]; read-out: SMYD3 Cell IC50*): 0.0437 µM

Structure (SMILES): CNc1ccc(S(=O)(=O)N2CC[C@@H](NC(=O)c3cc(C4CC4)on3)C[C@H]2C)cn1 [compound 449, 5-cyclopropyl-N-((2R,4R)-2-methyl-1-((6-(methylamino)pyridin-3-yl)sulfonyl)piperidin-4-yl)isoxazole-3-carboxamide]
IC50 (SMYD3 [1]; [9]): > 10 µM
IC50 (SMYD3 [2]; [10]): > 10 µM

Structure (SMILES): O=C1Cc2cc(S(=O)(=O)N3[C@@H]4CC[C@H]3C[C@@H](NC(=O)c3cc(C5CC5)on3)C4)ccc2N1 [compound 433, 5-cyclopropyl-N-((1R,3r,5S)-8-((2-oxoindolin-5-yl)sulfonyl)-8-azabicyclo[3.2.1]octan-3-yl)isoxazole-3-carboxamide]
IC50 (SMYD3 [1]; [9]): 4.19 µM
IC50 (SMYD3 [2]; [10]): > 10 µM

Structure (SMILES): COCCN[C@H]1CC[C@@H](S(=O)(=O)N2[C@@H]3CC[C@H]2C[C@@H](NC(=O)c2cc(C4CC4)on2)C3)CC1 [compound 826, 5-cyclopropyl-N-((1R,3R,5S)-8-(((1s,4S)-4-((2-methoxyethyl)amino)cyclohexyl)sulfonyl)-8-azabicyclo[3.2.1]octan-3-yl)isoxazole-3-carboxamide]
IC50 (SMYD3 [1]; read-out: SMYD3 Biochem IC50*): 0.00392 µM
IC50 (SMYD3 [2]; read-out: SMYD3 Cell IC50*): 0.0584 µM

Now from value to compound:

IC50 (SMYD3 [1]; [3]): 0.0773 µM
IC50 (SMYD3 [2]; [4]): 0.49 µM
Structure (SMILES): C[C@@H]1CN(S(=O)(=O)N2CC[C@H](NC(=O)c3cc(C4CC4)on3)C[C@@H]2C)[C@@H](C)CN1 [compound 661, 5-cyclopropyl-N-((2S,4S)-1-(((2S,5R)-2,5-dimethylpiperazin-1-yl)sulfonyl)-2-methylpiperidin-4-yl)isoxazole-3-carboxamide]

IC50 (SMYD3 [1]; [3]): 0.275 µM
IC50 (SMYD3 [2]; [4]): 1.1 µM
Structure (SMILES): C[C@@H]1CN(S(=O)(=O)N2CC[C@H](NC(=O)c3cc(C4CC4)on3)C[C@@H]2C)[C@@H](C)CN1C [compound 712, 5-cyclopropyl-N-((2S,4S)-2-methyl-1-(((2S,5R)-2,4,5-trimethylpiperazin-1-yl)sulfonyl)piperidin-4-yl)isoxazole-3-carboxamide]

IC50 (SMYD3 [1]; [5]): 0.0219 µM
IC50 (SMYD3 [2]; [6]): 0.595 µM
Structure (SMILES): C[C@@H]1C[C@H](NC(=O)c2cc(C3CC3)on2)CCN1C(=O)c1ccc(C2CCCNC2)cc1 (stereo partly drawn) [compound 616, 5-cyclopropyl-N-((2R,4R)-2-methyl-1-(4-(piperidin-3-yl)benzoyl)piperidin-4-yl)isoxazole-3-carboxamide]

IC50 (SMYD3 [1]; [5]): 0.0232 µM
IC50 (SMYD3 [2]; [6]): 0.22 µM
Structure (SMILES): C[C@H]1CN(S(=O)(=O)CC2CCNCC2)CC[C@H]1NC(=O)c1cc(C2CC2)on1 [compound 618, 5-cyclopropyl-N-((3S,4R)-3-methyl-1-((piperidin-4-ylmethyl)sulfonyl)piperidin-4-yl)isoxazole-3-carboxamide]

IC50 (SMYD3 [1]; [5]): 0.008 µM
IC50 (SMYD3 [2]; [6]): 0.105 µM
Structure (SMILES): C[C@H]1C[C@@H](NC(=O)c2cc(C3CC3)on2)CCN1S(=O)(=O)C1CCN(C)CC1 [compound 574, 5-cyclopropyl-N-((2S,4S)-2-methyl-1-((1-methylpiperidin-4-yl)sulfonyl)piperidin-4-yl)isoxazole-3-carboxamide]

IC50 (SMYD3 [1]; [3]): 0.684 µM
IC50 (SMYD3 [2]; [4]): 1.77 µM
Structure (SMILES): C[C@H]1C[C@@H](NC(=O)c2cc(C3CC3)on2)CCN1S(=O)(=O)c1ccnc(N)c1 [compound 756, N-((2S,4S)-1-((2-aminopyridin-4-yl)sulfonyl)-2-methylpiperidin-4-yl)-5-cyclopropylisoxazole-3-carboxamide]

IC50 (SMYD3 [1]; [5]): 0.0104 µM
IC50 (SMYD3 [2]; [6]): 0.234 µM
Structure (SMILES): COCCN1CCC(CS(=O)(=O)N2CC[C@@H](NC(=O)c3cc(C4CC4)on3)C[C@H]2C)CC1 [compound 583, 5-cyclopropyl-N-((2R,4R)-1-(((1-(2-methoxyethyl)piperidin-4-yl)methyl)sulfonyl)-2-methylpiperidin-4-yl)isoxazole-3-carboxamide]

IC50 (SMYD3 [1]; read-out: SMYD3 Biochem IC50*): 0.00464 µM
IC50 (SMYD3 [2]; read-out: SMYD3 Cell IC50*): 0.089 µM
Structure (SMILES): C[C@H]1C[C@@H](NC(=O)c2cc(C3CC3)on2)CCN1S(=O)(=O)C[C@H]1CCC[C@H](N)C1 [compound 836, N-((2S,4S)-1-((((1S,3S)-3-aminocyclohexyl)methyl)sulfonyl)-2-methylpiperidin-4-yl)-5-cyclopropylisoxazole-3-carboxamide]

IC50 (SMYD3 [1]; [9]): 0.116 µM
IC50 (SMYD3 [2]; [11]): 0.809 µM
Structure (SMILES): N[C@@H](Cc1ccc(O)c(I)c1)C(=O)N1CCC(NC(=O)c2cc(C3CC3)on2)CC1 [compound 5, (S)-N-(1-(2-amino-3-(4-hydroxy-3-iodophenyl)propanoyl)piperidin-4-yl)-5-cyclopropylisoxazole-3-carboxamide]

IC50 (SMYD3 [1]; [3]): 0.0444 µM
IC50 (SMYD3 [2]; [4]): 0.575 µM
Structure (SMILES): C[C@H]1C[C@@H](NC(=O)c2cc(C3CC3)on2)CCN1S(=O)(=O)CCCNC(c1ccccc1)c1ccccc1 [compound 645, N-((2S,4S)-1-((3-(benzhydrylamino)propyl)sulfonyl)-2-methylpiperidin-4-yl)-5-cyclopropylisoxazole-3-carboxamide]

IC50 (SMYD3 [1]; [5]): 0.0237 µM
IC50 (SMYD3 [2]; [6]): 0.231 µM
Structure (SMILES): C[C@H]1CN(S(=O)(=O)CC2CCN(CCO)CC2)CC[C@H]1NC(=O)c1cc(C2CC2)on1 [compound 623, 5-cyclopropyl-N-((3S,4R)-1-(((1-(2-hydroxyethyl)piperidin-4-yl)methyl)sulfonyl)-3-methylpiperidin-4-yl)isoxazole-3-carboxamide]

IC50 (SMYD3 [1]; [9]): 4.73 µM
IC50 (SMYD3 [2]; [10]): > 40 µM
Structure (SMILES): C[C@@H]1C[C@H](NC(=O)c2cc(C3CC3)on2)CCN1C(=O)CC(CN)c1ccccc1 (stereo partly drawn) [compound 314, N-((2R,4R)-1-(4-amino-3-phenylbutanoyl)-2-methylpiperidin-4-yl)-5-cyclopropylisoxazole-3-carboxamide]

IC50 (SMYD3 [1]; [9]): > 10 µM
IC50 (SMYD3 [2]; [11]): 14.1 µM
Structure (SMILES): C[C@H]1C[C@H](NC(=O)c2cc(C3CC3)on2)CCN1S(=O)(=O)Cc1ccccc1 [compound 244, N-((2S,4R)-1-(benzylsulfonyl)-2-methylpiperidin-4-yl)-5-cyclopropylisoxazole-3-carboxamide]
